In test [1] the target is T1, Human immunodeficiency virus type 1 protease (Human immunodeficiency virus 1, UniProt Q72874). The experiment in a line: Binding affinity to HIV-protease.
Test [2] addresses Human immunodeficiency virus type 1 protease (Human immunodeficiency virus 1) (UniProt Q72874). In words: Compound was evaluated for its antiviral activity against HIV-Protease in cell based assay.
Test [3] addresses T1, Human immunodeficiency virus type 1 protease. The experiment in a line: Compound was evaluated for binding affinity towards HIV-Protease enzyme.

Each structure is given as a SMILES string. A value given as a limit tells only on which side of the number the result lay.

Consider `CC1(C)O[C@@H]2[C@@H](O1)[C@@H](Cc1ccccc1)N(CC#Cc1cncnc1)C(=O)N(CC#Cc1cncnc1)[C@@H]2Cc1ccccc1`, for which the Ki – broadly, the equilibrium dissociation constant of an inhibitor or competing ligand from its target – in test [1] is at least 1000 nM.
`CC(C)N(CC#CCN1C(=O)N(CC#CCN(C(C)C)C(C)C)[C@H](Cc2ccccc2)[C@H](O)[C@@H](O)[C@H]1Cc1ccccc1)C(C)C` came in with a Ki in test [1] of at least 1000 nM.
Consider `CC1(C)O[C@@H]2[C@@H](O1)[C@@H](Cc1ccccc1)N(CC#Cc1cccs1)C(=O)N(CC#Cc1cccs1)[C@@H]2Cc1ccccc1`, for which the inhibition constant (Ki) in test [1] was at least 1000 nM.
With `O=C1N(CC#CCN2CCCCC2)[C@H](Cc2ccccc2)[C@H](O)[C@@H](O)[C@@H](Cc2ccccc2)N1CC#CCN1CCCCC1`, in test [1], the Ki is at least 1000 nM.
Take `CC1(C)O[C@@H]2[C@@H](O1)[C@@H](Cc1ccccc1)N(CC#Cc1cc3ccccc3cn1)C(=O)N(CC#Cc1cc3ccccc3cn1)[C@@H]2Cc1ccccc1`: the Ki in test [1] was at least 1000 nM.
The same measure, in the same setting: the value for `CC(C)(C)OC(=O)n1cc(C#CCN2C(=O)N(CC#Cc3cnn(C(=O)OC(C)(C)C)c3)[C@H](Cc3ccccc3)[C@H](O)[C@@H](O)[C@H]2Cc2ccccc2)cn1` was at least 1000 nM; that for `COCCOCn1cc(C#CCN2C(=O)N(CC#Cc3cnn(COCCOC)c3)[C@H](Cc3ccccc3)[C@@H]3OC(C)(C)O[C@H]3[C@H]2Cc2ccccc2)cn1` was at least 1000 nM.
On the same count and under the same terms, the value for `O=C1N(CC#Cc2cccnc2)[C@H](Cc2ccccc2)[C@H](O)[C@@H](O)[C@@H](Cc2ccccc2)N1CC#Cc1cccnc1` was at least 1000 nM.
In test [1], `O=C1N(CC#Cc2ccsc2)[C@H](Cc2ccccc2)[C@H](O)[C@@H](O)[C@@H](Cc2ccccc2)N1CC#Cc1ccsc1` had a Ki of at least 1000 nM.
In test [1], `CC1(C)O[C@@H]2[C@@H](O1)[C@@H](Cc1ccccc1)N(CC#Cc1cnc3ccccc3c1)C(=O)N(CC#Cc1cnc3ccccc3c1)[C@@H]2Cc1ccccc1` displayed a Ki of at least 1000 nM.
Same read-out and setting: the same measure for `O=C1N(CC#CCN2CCOCC2)[C@H](Cc2ccccc2)[C@H](O)[C@@H](O)[C@@H](Cc2ccccc2)N1CC#CCN1CCOCC1`: at least 1000 nM; for `CC1(C)O[C@@H]2[C@@H](O1)[C@@H](Cc1ccccc1)N(CC#Cc1cn[nH]c1)C(=O)N(CC#Cc1cn[nH]c1)[C@@H]2Cc1ccccc1`: at least 1000 nM; for `CCN(CC)CC#CCN1C(=O)N(CC#CCN(CC)CC)[C@H](Cc2ccccc2)[C@H](O)[C@@H](O)[C@H]1Cc1ccccc1`: at least 1000 nM.
On the same count and under the same terms, the same measure for `O=C1N(CC#Cc2cccs2)[C@H](Cc2ccccc2)[C@H](O)[C@@H](O)[C@@H](Cc2ccccc2)N1CC#Cc1cccs1`: at least 1000 nM; for `C#CCN1C(=O)N(CC#C)[C@H](Cc2ccccc2)[C@@H]2OC(C)(C)O[C@H]2[C@H]1Cc1ccccc1`: 22 nM; for `O=C1N(CC#Cc2cn[nH]c2)[C@H](Cc2ccccc2)[C@H](O)[C@@H](O)[C@@H](Cc2ccccc2)N1CC#Cc1cn[nH]c1`: at least 1000 nM.
In the case of `CC1(C)O[C@@H]2[C@@H](O1)[C@@H](Cc1ccccc1)N(CC#Cc1cccnc1)C(=O)N(CC#Cc1cccnc1)[C@@H]2Cc1ccccc1`, in test [1], the inhibitory constant (Ki) was at least 1000 nM.
Still for that read-out and setting: the value for `CC(C)(C)OC(=O)C1CCCN1CC#CCN1C(=O)N(CC#CCN2CCCC2C(=O)OC(C)(C)C)[C@H](Cc2ccccc2)[C@H](O)[C@@H](O)[C@H]1Cc1ccccc1` (stereo partly drawn) was at least 1000 nM.
Turning to `CC(C)(C)OC(=O)n1cc(C#CCN2C(=O)N(CC#Cc3cnn(C(=O)OC(C)(C)C)c3)[C@H](Cc3ccccc3)[C@@H]3OC(C)(C)O[C@H]3[C@H]2Cc2ccccc2)cn1`, in test [1], the Ki was at least 1000 nM.
For the compound `O=C1N(CC#Cc2cc3ccccc3cn2)[C@H](Cc2ccccc2)[C@H](O)[C@@H](O)[C@@H](Cc2ccccc2)N1CC#Cc1cc2ccccc2cn1`, the inhibition constant (Ki) in test [1] is at least 1000 nM.
Same read-out and setting: the value for `O=C1N(CC#Cc2cncnc2)[C@H](Cc2ccccc2)[C@H](O)[C@@H](O)[C@@H](Cc2ccccc2)N1CC#Cc1cncnc1` was at least 1000 nM.
As for `O=C1N(C/C=C/c2cn[nH]c2)[C@H](Cc2ccccc2)[C@H](O)[C@@H](O)[C@@H](Cc2ccccc2)N1CC1CC1`, in test [2], the 90% effect level (IC90) was put at 820 nM. The same compound came in with an inhibition constant Ki in test [3] of 0.41 nM.
In turn, `COCCOCn1cc(C#CCN2C(=O)N(CC#Cc3cnn(COCCOC)c3)[C@H](Cc3ccccc3)[C@H](O)[C@@H](O)[C@H]2Cc2ccccc2)cn1` yielded a Ki in test [1] of at least 1000 nM.
Still for that read-out and setting: the same measure for `CC1(C)O[C@@H]2[C@@H](O1)[C@@H](Cc1ccccc1)N(CC#Cc1ccsc1)C(=O)N(CC#Cc1ccsc1)[C@@H]2Cc1ccccc1`: at least 1000 nM; for `O=C1N(CC#Cc2cnc3ccccc3c2)[C@H](Cc2ccccc2)[C@H](O)[C@@H](O)[C@@H](Cc2ccccc2)N1CC#Cc1cnc2ccccc2c1`: at least 1000 nM.
Consider `O=C1N(C/C=C/c2cn[nH]c2)[C@H](Cc2ccccc2)[C@H](O)[C@@H](O)[C@@H](Cc2ccccc2)N1C/C=C/c1cn[nH]c1`, for which, in test [2], the IC90 (commonly the concentration needed for an effect of 90%) amounted to 370 nM. The compound further registered an inhibitory constant (Ki) in test [3] of 0.25 nM.

Values taken from ChEMBL document CHEMBL1159158, “Cyclic urea HIV protease inhibitors containing alkynyl- and alkenyl-tethered heterocycles in the P2 region” (Bioorg Med Chem Lett, 1996).
